Measurements taken from ChEMBL document CHEMBL1159265, “Bis(sulfato)-cyclosiphonodictyol A, a new disulfated sesquiterpene-hydroquinone from a deep water collection of the Marine sponge Siphonodictyon coralliphagum” (J Nat Prod, 1995).

Molecular target: Leukotriene B4 receptor 1 (Homo sapiens, UniProt Q15722)
Assay: Displacement of [3H]LTB4 from LTB4 receptor in human neutrophils

Chain of Leukotriene B4 receptor 1 (Q15722 whole entry): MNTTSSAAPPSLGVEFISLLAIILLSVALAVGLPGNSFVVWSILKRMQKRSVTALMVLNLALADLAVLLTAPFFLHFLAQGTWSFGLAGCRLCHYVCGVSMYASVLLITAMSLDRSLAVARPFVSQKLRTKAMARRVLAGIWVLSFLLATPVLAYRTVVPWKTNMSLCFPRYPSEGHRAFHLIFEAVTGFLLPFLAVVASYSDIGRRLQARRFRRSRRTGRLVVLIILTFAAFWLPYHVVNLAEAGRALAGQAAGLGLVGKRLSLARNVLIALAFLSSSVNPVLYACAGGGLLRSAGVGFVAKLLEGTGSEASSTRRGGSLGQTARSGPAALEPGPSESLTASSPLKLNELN

SMILES: CC1(C)CCC[C@]2(C)[C@H]3Cc4c(OS(=O)(=O)O)ccc(OS(=O)(=O)O)c4CO[C@]3(C)CC[C@@H]12
- IC50: 44.5 µM
